{"source": "ChEMBL document CHEMBL1151376", "about": "“Inhibition of Mitochondrial Function in Termite Queen Ovary by Rabdosia Diterpenoids” (J Nat Prod, 1981)", "format_in_all_cases": "functional", "settings_in_all_cases": "Female gonad", "key": {"Macrotermes subhyalinus [1]": {"test_system": "Macrotermes subhyalinus", "experiment": "Effect on oxygen consumption in Macrotermes subhyalinus ovary mitochondria assessed as inhibition of state 3 respiration assessed oxygen atom per mg protein per min at 100 uM by polarographic analysis"}, "Macrotermes subhyalinus [2]": {"test_system": "Macrotermes subhyalinus", "experiment": "Effect on oxygen consumption in Macrotermes subhyalinus ovary mitochondria assessed as inhibition of state 4 respiration assessed oxygen atom per mg protein per min at 100 uM by polarographic analysis"}, "Macrotermes subhyalinus [3]": {"test_system": "Macrotermes subhyalinus", "experiment": "Effect on oxygen consumption in Macrotermes subhyalinus ovary mitochondria assessed as inhibition of state 4U respiration assessed oxygen atom per mg protein per min at 100 uM in presence of 2,4-dinitrophenol by polarographic analysis"}, "Macrotermes subhyalinus [4]": {"test_system": "Macrotermes subhyalinus", "experiment": "Inhibition of oxidative phosphorylation in Macrotermes subhyalinus ovary mitochondria assessed as respiratory control ratio assessed oxygen atom per mg protein per min at 100 uM"}, "Macrotermes subhyalinus [5]": {"test_system": "Macrotermes subhyalinus", "experiment": "Inhibition of oxidative phosphorylation in Macrotermes subhyalinus ovary mitochondria assessed as ADP/O ratio at 100 uM"}, "Macrotermes subhyalinus [6]": {"test_system": "Macrotermes subhyalinus", "experiment": "Effect on phosphorylation rate in Macrotermes subhyalinus ovary mitochondria assessed as nmoles ATP synthesized per mg protein per min at 100 uM"}, "Macrotermes subhyalinus [7]": {"test_system": "Macrotermes subhyalinus", "experiment": "Effect on oxygen consumption in Macrotermes subhyalinus ovary mitochondria assessed as inhibition of state 3 respiration assessed oxygen atom per mg protein per min at 250 uM by polarographic analysis"}, "Macrotermes subhyalinus [8]": {"test_system": "Macrotermes subhyalinus", "experiment": "Effect on oxygen consumption in Macrotermes subhyalinus ovary mitochondria assessed as inhibition of state 4 respiration assessed oxygen atom per mg protein per min at 250 uM by polarographic analysis"}, "Macrotermes subhyalinus [9]": {"test_system": "Macrotermes subhyalinus", "experiment": "Effect on oxygen consumption in Macrotermes subhyalinus ovary mitochondria assessed as inhibition of state 4U respiration assessed oxygen atom per mg protein per min at 250 uM in presence of 2,4-dinitrophenol by polarographic analysis"}, "Macrotermes subhyalinus [10]": {"test_system": "Macrotermes subhyalinus", "experiment": "Inhibition of oxidative phosphorylation in Macrotermes subhyalinus ovary mitochondria assessed as respiratory control ratio assessed oxygen atom per mg protein per min at 250 uM"}, "Macrotermes subhyalinus [11]": {"test_system": "Macrotermes subhyalinus", "experiment": "Inhibition of oxidative phosphorylation in Macrotermes subhyalinus ovary mitochondria assessed as ADP/O ratio at 250 uM"}, "Macrotermes subhyalinus [12]": {"test_system": "Macrotermes subhyalinus", "experiment": "Effect on phosphorylation rate in Macrotermes subhyalinus ovary mitochondria assessed as nmoles ATP synthesized per mg protein per min at 250 uM"}}}
{"compound": "C=C1C(=O)[C@]23C[C@H]1C[C@H](O)[C@H]2[C@]1(COC(C)=O)[C@H](CCC(C)(C)[C@H]1C=O)OC3=O", "values": [{"measurement": "Activity", "setting": "Macrotermes subhyalinus [1]", "value": 118}, {"measurement": "Activity", "setting": "Macrotermes subhyalinus [2]", "value": 44.2}, {"measurement": "Activity", "setting": "Macrotermes subhyalinus [3]", "value": 41.2}, {"measurement": "Ratio", "setting": "Macrotermes subhyalinus [4]", "value": 2.66}, {"measurement": "Ratio", "setting": "Macrotermes subhyalinus [5]", "value": 1.03}, {"measurement": "Activity", "setting": "Macrotermes subhyalinus [6]", "value": 121}]}
{"compound": "C=C1C(=O)[C@]23[C@H](O)[C@H]1CC[C@H]2[C@@]12CO[C@]3(O)[C@@H](O)[C@@H]1C(C)(C)CC[C@@H]2O", "values": [{"measurement": "Activity", "setting": "Macrotermes subhyalinus [1]", "value": 118}, {"measurement": "Activity", "setting": "Macrotermes subhyalinus [2]", "value": 32.4}, {"measurement": "Activity", "setting": "Macrotermes subhyalinus [3]", "value": 106}, {"measurement": "Ratio", "setting": "Macrotermes subhyalinus [4]", "value": 3.63}, {"measurement": "Ratio", "setting": "Macrotermes subhyalinus [5]", "value": 1.33}, {"measurement": "Activity", "setting": "Macrotermes subhyalinus [6]", "value": 156}]}
{"compound": "C=C1C(=O)[C@]23C[C@H]1C[C@@H](O)[C@H]2[C@@]12CO[C@@H](O)[C@@H]1C(C)(C)CC[C@@H]2OC3=O", "values": [{"measurement": "Activity", "setting": "Macrotermes subhyalinus [7]", "value": 94.8}, {"measurement": "Activity", "setting": "Macrotermes subhyalinus [8]", "value": 41.2}, {"measurement": "Activity", "setting": "Macrotermes subhyalinus [9]", "value": 61.8}, {"measurement": "Ratio", "setting": "Macrotermes subhyalinus [10]", "value": 2.3}, {"measurement": "Ratio", "setting": "Macrotermes subhyalinus [11]", "value": 1.79}, {"measurement": "Activity", "setting": "Macrotermes subhyalinus [12]", "value": 170}]}
{"compound": "C=C1C(=O)[C@]23C[C@H]1CC[C@H]2[C@@]12CO[C@@H](O)[C@@H]1C(C)(C)[C@@H](O)C[C@@H]2OC3=O", "values": [{"measurement": "Activity", "setting": "Macrotermes subhyalinus [1]", "value": 115}, {"measurement": "Activity", "setting": "Macrotermes subhyalinus [2]", "value": 33.6}, {"measurement": "Activity", "setting": "Macrotermes subhyalinus [3]", "value": 104}, {"measurement": "Ratio", "setting": "Macrotermes subhyalinus [4]", "value": 3.41}, {"measurement": "Ratio", "setting": "Macrotermes subhyalinus [5]", "value": 1.62}, {"measurement": "Activity", "setting": "Macrotermes subhyalinus [6]", "value": 186}]}
